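Cells were grown in 96-well plates and exposed to each compound for 48 hours at five concentrations; endpoints were interpolated linearly between bracketing concentrations, or set to the highest concentration if not reached. GI50 is the concentration that inhibits growth by half.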 The source made the active and inactive calls. Rule as the data show it: active = GI50 up to about 1.1 µM and inactive = higher.
What was measured:
Test in all cases: NCI tumour cell line growth inhibition, 48 h
786-0 = tested on: 786-0
A498 = tested on: A498
ACHN = tested on: ACHN
BT-549 = tested on: BT-549
CCRF-CEM = tested on: CCRF-CEM
DU-145 = tested on: DU-145
EKVX = tested on: EKVX
M14 = tested on: M14
MCF7 = tested on: MCF7
MDA-MB-435 = tested on: MDA-MB-435
MDA-N = tested on: MDA-N
NCI-H226 = tested on: NCI-H226
OVCAR-3 = tested on: OVCAR-3
OVCAR-5 = tested on: OVCAR-5
SF-268 = tested on: SF-268
SK-MEL-5 = tested on: SK-MEL-5
SK-OV-3 = tested on: SK-OV-3
SNB-75 = tested on: SNB-75
T47D = tested on: T47D
U-251 = tested on: U-251

Compound | GI50 (786-0) | GI50 (A498) | GI50 (ACHN) | GI50 (BT-549) | GI50 (CCRF-CEM) | GI50 (DU-145) | GI50 (EKVX) | GI50 (M14) | GI50 (MCF7) | GI50 (MDA-MB-435) | GI50 (MDA-N) | GI50 (NCI-H226) | GI50 (OVCAR-3) | GI50 (OVCAR-5) | GI50 (SF-268) | GI50 (SK-MEL-5) | GI50 (SK-OV-3) | GI50 (SNB-75) | GI50 (T47D) | GI50 (U-251)
O=c1[nH]c(NCc2cccnc2)nc2[nH]cnc12 | > 100 µM (inactive) | > 100 µM (inactive) | > 100 µM (inactive) | > 100 µM (inactive) | > 100 µM (inactive) | > 100 µM (inactive) | > 100 µM (inactive) | > 100 µM (inactive) | > 100 µM (inactive) | > 100 µM (inactive) | > 100 µM (inactive) | > 100 µM (inactive) | > 100 µM (inactive) | > 100 µM (inactive) | > 100 µM (inactive) | > 100 µM (inactive) | > 100 µM (inactive) | > 100 µM (inactive) | > 100 µM (inactive) | > 100 µM (inactive)
CC1CC[C@@]2(OC1)OC1C[C@H]3[C@@H]4CC[C@H]5CC(OC6OC(CO)C(OC7OC(CO)C(O)C(O)C7O)C(O)C6O)CCC5(C)[C@H]4CCC3(C)C1[C@@H]2C (stereo not given in full) | 8.26 µM (inactive) | 8.65 µM (inactive) | 7.53 µM (inactive) | 4.86 µM (inactive) | 9.16 µM (inactive) | 8.3 µM (inactive) | 5.33 µM (inactive) | 8.89 µM (inactive) | 5.85 µM (inactive) | 9.25 µM (inactive) | 8.2 µM (inactive) | 8.81 µM (inactive) | 6.1 µM (inactive) | 8.65 µM (inactive) | 9.57 µM (inactive) | 8.69 µM (inactive) | 10.1 µM (inactive) | 9.93 µM (inactive) | 9.31 µM (inactive) | 8.99 µM (inactive)
COc1cc(/C=C2/SC(c3ccccc3)N(c3ccc(Cl)cc3)C2=O)cc(OC)c1OC (stereo not given) | > 100 µM (inactive) | > 80 µM (inactive) | 4.35 µM (inactive) | > 59 µM (inactive) | 2.84 µM (inactive) | > 100 µM (inactive) | > 52.6 µM (inactive) | 0.964 µM (active) | 3.96 µM (inactive) | 0.436 µM (active) | 2.37 µM (inactive) | > 100 µM (inactive) | 80.5 µM (inactive) | > 100 µM (inactive) | 19.5 µM (inactive) | 0.638 µM (active) | 9.48 µM (inactive) | 95.3 µM (inactive) | 3.94 µM (inactive) | > 72.6 µM (inactive)
COc1ccc2oc(=O)c3c(c2c1C)OC(C)(C)C=C3 | > 100 µM (inactive) | > 100 µM (inactive) | > 100 µM (inactive) | > 100 µM (inactive) | > 100 µM (inactive) | > 100 µM (inactive) | > 100 µM (inactive) | > 100 µM (inactive) | > 100 µM (inactive) | > 100 µM (inactive) | > 100 µM (inactive) | > 100 µM (inactive) | > 100 µM (inactive) | > 100 µM (inactive) | 23.2 µM (inactive) | > 100 µM (inactive) | > 100 µM (inactive) | > 100 µM (inactive) | > 100 µM (inactive) | > 100 µM (inactive)
O=[N+]([O-])c1ccc(-c2cn(-c3ccc(Cl)cc3)cn2)cc1 | 16.6 µM (inactive) | 40.7 µM (inactive) | 31.6 µM (inactive) | 59.2 µM (inactive) | > 100 µM (inactive) | > 100 µM (inactive) | 32.7 µM (inactive) | > 100 µM (inactive) | 71.6 µM (inactive) | > 100 µM (inactive) | > 100 µM (inactive) | 48.5 µM (inactive) | 19.1 µM (inactive) | > 100 µM (inactive) | 14.2 µM (inactive) | 34.2 µM (inactive) | 11.6 µM (inactive) | 8.57 µM (inactive) | 44.2 µM (inactive) | 31.8 µM (inactive)
Cc1ccccc1C(=O)N/N=C/c1ccc(Sc2nccn2C)c([N+](=O)[O-])c1 | > 100 µM (inactive) | > 100 µM (inactive) | > 100 µM (inactive) | 67.1 µM (inactive) | 36.5 µM (inactive) | 88.3 µM (inactive) | 64.9 µM (inactive) | > 100 µM (inactive) | > 100 µM (inactive) | 25.9 µM (inactive) | 32.7 µM (inactive) | > 100 µM (inactive) | > 100 µM (inactive) | > 100 µM (inactive) | > 100 µM (inactive) | 36.4 µM (inactive) | > 100 µM (inactive) | 63.2 µM (inactive) | 45.3 µM (inactive) | 85.1 µM (inactive)
[N-]=[N+]=NC(c1ccccc1)(c1ccccc1)c1ccccc1 | 17.1 µM (inactive) | 17.3 µM (inactive) | 15.7 µM (inactive) | 19.7 µM (inactive) | 19.1 µM (inactive) | 17.3 µM (inactive) | 14.2 µM (inactive) | 18.4 µM (inactive) | 17.5 µM (inactive) | 19.1 µM (inactive) | 16.4 µM (inactive) | 17.3 µM (inactive) | 20.4 µM (inactive) | 16 µM (inactive) | 18.5 µM (inactive) | 13.8 µM (inactive) | 29.4 µM (inactive) | 16.9 µM (inactive) | 16 µM (inactive) | 15.8 µM (inactive)
NC(=O)c1ccc(N)nc1 [6-AMINONICOTINAMIDE] | 3.54 µM (inactive) | 14.9 µM (inactive) | 54.3 µM (inactive) | 14.1 µM (inactive) | 12.3 µM (inactive) | 2.3 µM (inactive) | 21.7 µM (inactive) | 6.24 µM (inactive) | 0.389 µM (active) | 4.66 µM (inactive) | 14.3 µM (inactive) | 35.7 µM (inactive) | 67.8 µM (inactive) | > 322 µM (inactive) | 19.1 µM (inactive) | 0.759 µM (active) | > 400 µM (inactive) | 15.6 µM (inactive) | > 255 µM (inactive) | 1.85 µM (inactive)
CC(=O)OC(C)(C)/C=C/C(=O)[C@](C)(O)[C@H]1[C@H](O)C[C@@]2(C)[C@@H]3CC=C4[C@@H](C=C(O)C(=O)C4(C)C)[C@]3(C)C(=O)C[C@]12C [CUCURBITACIN E] | 0.0339 µM (active) | 0.0247 µM (active) | 0.0179 µM (active) | 0.027 µM (active) | 0.0298 µM (active) | 0.0262 µM (active) | 0.118 µM (active) | 0.0375 µM (active) | 0.054 µM (active) | 0.604 µM (active) | 0.0518 µM (active) | 0.0327 µM (active) | 0.0459 µM (active) | 0.186 µM (active) | 0.0275 µM (active) | 0.0406 µM (active) | 0.0436 µM (active) | 0.0187 µM (active) | 0.217 µM (active) | 0.0203 µM (active)
CCCCCCCC1C(C)c2c([nH]c3ccccc23)C2C(=O)N(c3ccc(OC)cc3)C(=O)C21 (stereo not given) | 1.66 µM (inactive) | 2.67 µM (inactive) | 2.66 µM (inactive) | 2.11 µM (inactive) | 2.61 µM (inactive) | > 8.3 µM (inactive) | 3.97 µM (inactive) | 2.74 µM (inactive) | 4.6 µM (inactive) | 3.33 µM (inactive) | 4.22 µM (inactive) | 3.1 µM (inactive) | 2.48 µM (inactive) | > 10 µM (inactive) | 3.72 µM (inactive) | > 6.22 µM (inactive) | 4.68 µM (inactive) | 1.95 µM (inactive) | 3.79 µM (inactive) | 1.92 µM (inactive)
Nc1ccc2c(=O)cc(-c3cccs3)[nH]c2n1 | 3.45 µM (inactive) | > 37.8 µM (inactive) | 11.7 µM (inactive) | 4.88 µM (inactive) | 2.21 µM (inactive) | 5.9 µM (inactive) | 6.5 µM (inactive) | 1.6 µM (inactive) | 1.12 µM (inactive) | 0.285 µM (active) | 0.223 µM (active) | 2.42 µM (inactive) | 3.32 µM (inactive) | 15.3 µM (inactive) | 8.93 µM (inactive) | 1.03 µM (active) | 5.25 µM (inactive) | 2.46 µM (inactive) | 3.13 µM (inactive) | 2.75 µM (inactive)
CCOC(=O)C1=NNC(C(=O)c2ccccc2)C1c1ccccc1 (stereo not given) | 2.11 µM (inactive) | 25.1 µM (inactive) | 1.85 µM (inactive) | 2.08 µM (inactive) | 1.64 µM (inactive) | 13.2 µM (inactive) | 8.95 µM (inactive) | 1.9 µM (inactive) | 1.91 µM (inactive) | 1.91 µM (inactive) | 1.85 µM (inactive) | 18.1 µM (inactive) | 3.42 µM (inactive) | 6.47 µM (inactive) | 5 µM (inactive) | 1.8 µM (inactive) | 18.8 µM (inactive) | 5.7 µM (inactive) | 4.24 µM (inactive) | 3.39 µM (inactive)

— ChEMBL document CHEMBL1201862, “PubChem BioAssay data set” (2004)
